Experimental findings from ChEMBL document CHEMBL1136221, “Analysis of the critical structural determinant(s) of species-selective peroxisome proliferator-activated receptor alpha (PPAR alpha)-activation by phenylpropanoic acid-type PPAR alpha agonists” (Bioorg Med Chem Lett, 2003) are described below.

Common to all, as to format: cell-based
The target of test [1] is Peroxisome proliferator-activated receptor alpha (Homo sapiens, UniProt Q07869, T279M). Description: Transcriptional activation activity on human T279M-mutant Peroxisome proliferator activated receptor alpha expressed in CHO-K1 cells.
Test [2] relates to T1, Peroxisome proliferator-activated receptor alpha (Homo sapiens), Q07869 [I272F].
T1 sequence (whole entry): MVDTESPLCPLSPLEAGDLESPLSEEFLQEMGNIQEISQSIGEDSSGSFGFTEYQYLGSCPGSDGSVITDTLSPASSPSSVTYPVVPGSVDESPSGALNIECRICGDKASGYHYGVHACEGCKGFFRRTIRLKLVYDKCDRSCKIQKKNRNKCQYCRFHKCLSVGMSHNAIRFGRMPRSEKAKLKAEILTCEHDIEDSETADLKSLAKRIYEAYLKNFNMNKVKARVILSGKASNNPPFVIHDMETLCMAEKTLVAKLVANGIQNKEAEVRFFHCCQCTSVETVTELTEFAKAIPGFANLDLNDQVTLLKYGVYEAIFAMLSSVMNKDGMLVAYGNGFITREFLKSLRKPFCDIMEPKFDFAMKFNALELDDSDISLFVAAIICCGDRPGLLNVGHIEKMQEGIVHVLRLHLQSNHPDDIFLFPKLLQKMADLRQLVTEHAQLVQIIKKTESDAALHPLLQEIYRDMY
In words: Transcriptional activation activity on human I272F-mutant Peroxisome proliferator activated receptor alpha expressed in CHO-K1 cells at 10 uM.

Test [3] deals with T2, Peroxisome proliferator-activated receptor alpha (Homo sapiens, UniProt Q07869).
T2 sequence (Q07869 whole entry): T1 sequence (whole entry) with F272I
Description: Transcriptional activation activity on human Peroxisome proliferator activated receptor alpha expressed in CHO-K1 cells.

For test [4], the system named is Peroxisome proliferator-activated receptor alpha (Homo sapiens), Q07869 [UNDEFINED MUTATION]. In words: Ratio of transcriptional activation of T279M mutant compared to wild type PPAR-GAL4 chimeric receptors in CHO-K1 cells.
Test [5] has as its target Peroxisome proliferator-activated receptor alpha (Homo sapiens, UniProt Q07869, I272F). Description: Transcriptional activation activity on human I272F-mutant Peroxisome proliferator activated receptor alpha expressed in CHO-K1 cells.
The subject of test [6] is Peroxisome proliferator-activated receptor alpha (Homo sapiens), Q07869 [UNDEFINED MUTATION]. Description: Ratio of transcriptional activation of I272F mutant compared to wild type PPAR-GAL4 chimeric receptors in CHO-K1 cells.

By EC50 is commonly meant the concentration giving half of the maximal effect. Read a low EC50 as an effect from little substance. As usually defined, the inhibition is how much of the control response was suppressed.

Residue numbers refer to the chain shown, from its start.

Sequence of Peroxisome proliferator-activated receptor alpha (Homo sapiens, UniProt Q07869, T279M) (Q07869 whole entry T279M): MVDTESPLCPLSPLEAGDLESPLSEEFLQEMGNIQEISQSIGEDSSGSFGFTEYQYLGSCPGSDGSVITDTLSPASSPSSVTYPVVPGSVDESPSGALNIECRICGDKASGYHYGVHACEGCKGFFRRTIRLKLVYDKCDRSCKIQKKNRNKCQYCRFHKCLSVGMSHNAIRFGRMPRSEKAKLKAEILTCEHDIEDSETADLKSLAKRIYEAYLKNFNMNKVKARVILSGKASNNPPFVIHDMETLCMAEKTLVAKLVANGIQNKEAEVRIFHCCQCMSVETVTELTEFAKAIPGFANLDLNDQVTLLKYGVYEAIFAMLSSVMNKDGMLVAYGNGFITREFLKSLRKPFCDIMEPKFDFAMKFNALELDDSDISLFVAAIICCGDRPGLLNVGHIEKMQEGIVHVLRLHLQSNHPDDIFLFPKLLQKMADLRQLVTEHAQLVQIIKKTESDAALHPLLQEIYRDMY
Sequence of Peroxisome proliferator-activated receptor alpha (Homo sapiens), Q07869 [UNDEFINED MUTATION] (Q07869 whole entry, looked up, stated change not applied, the tested form may be a part): as the sequence (Q07869 whole entry T279M) above, with M279T counted along it

On to `CC[C@@H](Cc1ccc(OC)c(C(=O)NCc2ccccc2)c1)C(=O)O`, for which the results for the EC50 in test [1] and in test [3] were 11.4 µM and 3380 nM, respectively. In test [2], this molecule had an inhibition of 30%. Moreover, the Ratio in test [4] was 3.37.

Regarding `CC[C@@H](Cc1ccc(OC)c(C(=O)NCc2ccc(C(F)(F)F)cc2)c1)C(=O)O`, the values for the EC50 in test [1], in test [5] and in test [3] were 0.309 µM, 2820 nM and 80.3 nM, respectively.

Turning to `CC[C@@H](Cc1ccc(OC)c(OCCc2ccc(C(F)(F)F)cc2)c1)C(=O)O`, the figures for the EC50 in test [1], in test [5] and in test [3] were 16.1 µM, 33400 nM and 2720 nM, respectively. The Ratio in test [6] was 12.3; in test [4], 5.92.

`CC[C@@H](Cc1ccc(OC)c(C(=O)NCc2ccc(Oc3ccc(F)cc3)cc2)c1)C(=O)O`: the EC50 stood at 0.014 µM in test [1], 667 nM in test [5] and 0.615 nM in test [3]. Further, the values for the Ratio in test [6] and in test [4] were 108 and 2.28, respectively.
